Test results as given in ChEMBL document CHEMBL1240439, “Synthesis and docking studies of novel benzopyran-2-ones with anticancer activity” (2010).
Activity calls are given as the source filed them.

Columns and labels:
Format in all cases: functional
Malme-3M = experiment: Cytotoxicity against human MALME-3M cells assessed as cell growth at 10 uM after 48 hrs by sulforhodamine B assay
Hs-578T = experiment: Cytotoxicity against human Hs 578T cells assessed as cell growth at 10 uM after 48 hrs by sulforhodamine B assay
MOLT-4 = experiment: Cytotoxicity against human MOLT4 cells assessed as cell growth at 10 uM after 48 hrs by sulforhodamine B assay
786-0 = experiment: Cytotoxicity against human 786-0 cells assessed as cell growth at 10 uM after 48 hrs by sulforhodamine B assay
M14 = experiment: Cytotoxicity against human M14 cells assessed as cell growth at 10 uM after 48 hrs by sulforhodamine B assay
T47D = experiment: Cytotoxicity against human T47D cells assessed as cell growth at 10 uM after 48 hrs by sulforhodamine B assay
HT-29 = experiment: Cytotoxicity against human HT-29 cells assessed as cell growth at 10 uM after 48 hrs by sulforhodamine B assay
DU-145 = experiment: Cytotoxicity against human DU145 cells assessed as cell growth at 10 uM after 48 hrs by sulforhodamine B assay
A549 = experiment: Cytotoxicity against human A549 cells assessed as cell growth at 10 uM after 48 hrs by sulforhodamine B assay
SK-MEL-2 = experiment: Cytotoxicity against human SK-MEL-2 cells assessed as cell growth at 10 uM after 48 hrs by sulforhodamine B assay
RXF 393 = experiment: Cytotoxicity against human RXF393 cells assessed as cell growth at 10 uM after 48 hrs by sulforhodamine B assay
COLO 205 = experiment: Cytotoxicity against human COLO205 cells assessed as cell growth at 10 uM after 48 hrs by sulforhodamine B assay
TK-10 = experiment: Cytotoxicity against human TK10 cells assessed as cell growth at 10 uM after 48 hrs by sulforhodamine B assay
UACC-62 = experiment: Cytotoxicity against human UACC62 cells assessed as cell growth at 10 uM after 48 hrs by sulforhodamine B assay
SNB-75 = experiment: Cytotoxicity against human SNB75 cells assessed as cell growth at 10 uM after 48 hrs by sulforhodamine B assay
OVCAR-5 = experiment: Cytotoxicity against human OVCAR5 cells assessed as cell growth at 10 uM after 48 hrs by sulforhodamine B assay
NCI-H23 = experiment: Cytotoxicity against human NCI-H23 cells assessed as cell growth at 10 uM after 48 hrs by sulforhodamine B assay
MDA-MB-435 = experiment: Cytotoxicity against human MDA-MB-435 cells assessed as cell growth at 10 uM after 48 hrs by sulforhodamine B assay
MCF7 = experiment: Cytotoxicity against human MCF7 cells assessed as cell growth at 10 uM after 48 hrs by sulforhodamine B assay
OVCAR-8 = experiment: Cytotoxicity against human OVCAR8 cells assessed as cell growth at 10 uM after 48 hrs by sulforhodamine B assay
SR = experiment: Cytotoxicity against human SR cells assessed as cell growth at 10 uM after 48 hrs by sulforhodamine B assay
MDA-MB-231 = experiment: Cytotoxicity against human MDA-MB-231 cells assessed as cell growth at 10 uM after 48 hrs by sulforhodamine B assay
A498 = experiment: Cytotoxicity against human A498 cells assessed as cell growth at 10 uM after 48 hrs by sulforhodamine B assay
OVCAR-4 = experiment: Cytotoxicity against human OVCAR4 cells assessed as cell growth at 10 uM after 48 hrs by sulforhodamine B assay
SF-268 = experiment: Cytotoxicity against human SF268 cells assessed as cell growth at 10 uM after 48 hrs by sulforhodamine B assay
HCT-116 = experiment: Cytotoxicity against human HCT116 cells assessed as cell growth at 10 uM after 48 hrs by sulforhodamine B assay
K562 = experiment: Cytotoxicity against human K562 cells assessed as cell growth at 10 uM after 48 hrs by sulforhodamine B assay
NCI-H322M = experiment: Cytotoxicity against human NCI-H322M cells assessed as cell growth at 10 uM after 48 hrs by sulforhodamine B assay
UO-31 = experiment: Cytotoxicity against human UO31 cells assessed as cell growth at 10 uM after 48 hrs by sulforhodamine B assay
NCI-H522 = experiment: Cytotoxicity against human NCI-H522 cells assessed as cell growth at 10 uM after 48 hrs by sulforhodamine B assay
BT-549 = experiment: Cytotoxicity against human BT549 cells assessed as cell growth at 10 uM after 48 hrs by sulforhodamine B assay
OVCAR-3 = experiment: Cytotoxicity against human OVCAR-3 cells assessed as cell growth at 10 uM after 48 hrs by sulforhodamine B assay
HCT-15 = experiment: Cytotoxicity against human HCT15 cells assessed as cell growth at 10 uM after 48 hrs by sulforhodamine B assay
SNB-19 = experiment: Cytotoxicity against human SNB19 cells assessed as cell growth at 10 uM after 48 hrs by sulforhodamine B assay
SK-OV-3 = experiment: Cytotoxicity against human SKOV3 cells assessed as cell growth at 10 uM after 48 hrs by sulforhodamine B assay
ACHN = experiment: Cytotoxicity against human ACHN cells assessed as cell growth at 10 uM after 48 hrs by sulforhodamine B assay
SK-MEL-5 = experiment: Cytotoxicity against human SK-MEL-5 cells assessed as cell growth at 10 uM after 48 hrs by sulforhodamine B assay
MDA-MB-468 = experiment: Cytotoxicity against human MDA-MB-468 cells assessed as cell growth at 10 uM after 48 hrs by sulforhodamine B assay
RPMI-8226 = experiment: Cytotoxicity against human RPMI8226 cells assessed as cell growth at 10 uM after 48 hrs by sulforhodamine B assay
NCI-H226 = experiment: Cytotoxicity against human NCI-H226 cells assessed as cell growth at 10 uM after 48 hrs by sulforhodamine B assay
UACC-257 = experiment: Cytotoxicity against human UACC257 cells assessed as cell growth at 10 uM after 48 hrs by sulforhodamine B assay
NCI-H460 = experiment: Cytotoxicity against human NCI-H460 cells assessed as cell growth at 10 uM after 48 hrs by sulforhodamine B assay
U-251 = experiment: Cytotoxicity against human U251 cells assessed as cell growth at 10 uM after 48 hrs by sulforhodamine B assay
HCC 2998 = experiment: Cytotoxicity against human HCC2998 cells assessed as cell growth at 10 uM after 48 hrs by sulforhodamine B assay
SK-MEL-28 = experiment: Cytotoxicity against human SK-MEL-28 cells assessed as cell growth at 10 uM after 48 hrs by sulforhodamine B assay
LOX IMVI = experiment: Cytotoxicity against human LOXIMVI cells assessed as cell growth at 10 uM after 48 hrs by sulforhodamine B assay
SF-539 = experiment: Cytotoxicity against human SF539 cells assessed as cell growth at 10 uM after 48 hrs by sulforhodamine B assay
HL-60(TB) = experiment: Cytotoxicity against human HL-60(TB) cells assessed as cell growth at 10 uM after 48 hrs by sulforhodamine B assay
PC-3 = experiment: Cytotoxicity against human PC3 cells assessed as cell growth at 10 uM after 48 hrs by sulforhodamine B assay
SW-620 = experiment: Cytotoxicity against human SW620 cells assessed as cell growth at 10 uM after 48 hrs by sulforhodamine B assay
SF-295 = experiment: Cytotoxicity against human SF295 cells assessed as cell growth at 10 uM after 48 hrs by sulforhodamine B assay
SN12C = experiment: Cytotoxicity against human SN12C cells assessed as cell growth at 10 uM after 48 hrs by sulforhodamine B assay
IGROV-1 = experiment: Cytotoxicity against human IGROV1 cells assessed as cell growth at 10 uM after 48 hrs by sulforhodamine B assay
EKVX = experiment: Cytotoxicity against human EKVX cells assessed as cell growth at 10 uM after 48 hrs by sulforhodamine B assay
HOP-62 = experiment: Cytotoxicity against human HOP62 cells assessed as cell growth at 10 uM after 48 hrs by sulforhodamine B assay
KM12 = experiment: Cytotoxicity against human KM12 cells assessed as cell growth at 10 uM after 48 hrs by sulforhodamine B assay
HOP-92 = experiment: Cytotoxicity against human HOP92 cells assessed as cell growth at 10 uM after 48 hrs by sulforhodamine B assay
CCRF-CEM = experiment: Cytotoxicity against human CCRF-CEM cells assessed as cell growth at 10 uM after 48 hrs by sulforhodamine B assay

Measured: Activity

CCCc1cc(=O)oc2c(C)c(OCC(=O)n3nc(C)cc3C)ccc12
inactive: all assays above

CCCc1cc(=O)oc2c(C)c(OCc3nnc(S)o3)ccc12
inactive: all assays above
